Results taken from PubChem BioAssay (NCI).
Where “and” joins values, the source holds several entries; their conditions need not be identical. Equal entries are not always repeated.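 Where inhibition never reached the appropriate level, the endpoint shown equals the highest concentration tested. Otherwise, values were interpolated linearly from a five-concentration, 48-hour dose response in 96-well plates. GI50 is the concentration that inhibits growth by half. TGI is the concentration that stops growth completely.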

Experiments:
Assay in all cases: growth of human tumour cells (NCI), 48 h
NCI-H226 lung = test system: NCI-H226 lung
HOP-92 NSCLC = test system: HOP-92 NSCLC
MOLT-4 leukemia = test system: MOLT-4 leukemia
SF-295 CNS = test system: SF-295 CNS
SW-620 colon = test system: SW-620 colon
ACHN renal = test system: ACHN renal
HT29 colon = test system: HT29 colon
HOP-62 NSCLC = test system: HOP-62 NSCLC
UO-31 renal = test system: UO-31 renal
OVCAR-3 ovarian = test system: OVCAR-3 ovarian

Row | Compound | TGI (NCI-H226 lung) | TGI (HOP-92 NSCLC) | TGI (MOLT-4 leukemia) | TGI (SF-295 CNS) | TGI (SW-620 colon) | TGI (ACHN renal) | TGI (HT29 colon) | TGI (HOP-62 NSCLC) | TGI (UO-31 renal) | TGI (OVCAR-3 ovarian) | GI50 (NCI-H226 lung) | GI50 (MOLT-4 leukemia) | GI50 (SF-295 CNS) | GI50 (SW-620 colon) | GI50 (ACHN renal) | GI50 (HT29 colon) | GI50 (HOP-62 NSCLC) | GI50 (UO-31 renal) | GI50 (OVCAR-3 ovarian) | GI50 (HOP-92 NSCLC)
1 | CC1CCc2c(c(CC3CC(=O)NC(=O)C3)nn2-c2ccccc2)C1 (stereo not given) | > 100 µM | > 100 µM | > 100 µM | > 100 µM | > 100 µM | > 100 µM | > 100 µM | > 100 µM | > 100 µM | > 100 µM |  |  |  |  |  |  |  |  |  | 
2 | COc1ccc2c(c1)N(CCO)C1=C(C(=O)OC1)C2c1ccccc1 (stereo not given) | 19 µM |  | > 50 µM | 2.73 µM | > 50 µM | > 50 µM | 5.73 µM | > 50 µM | > 50 µM | 2.47 µM | 1.55 µM | 3.63 µM | 0.888 µM | 1.64 µM | 3.78 µM | 1.77 µM | 2.18 µM | 2.37 µM | 1.18 µM | 
3 | Cc1ccc(NC(=O)CC/C(CC(=O)C(C)(C)C)=N\Nc2ccc([N+](=O)[O-])cc2[N+](=O)[O-])cc1C | > 100 µM | > 100 µM | > 100 µM | > 100 µM | > 100 µM | > 100 µM | > 100 µM | 61.9 µM | > 100 µM |  |  |  |  |  |  |  |  |  |  | 
4 | C=C1NC(=O)C(CC(C(=O)C(=O)Nc2c(C)cccc2C(C)(C)C)C(=O)c2ccc3ccccc3c2)C(=O)N1 (stereo not given) | > 100 µM | > 100 µM | > 100 µM | > 100 µM | > 100 µM | > 100 µM | > 100 µM |  | > 100 µM | > 100 µM |  |  |  |  |  |  |  |  |  | 
5 | N#Cc1cc(NC(=O)c2ccccc2)c(=O)n2c1[nH]c1ccccc12 |  |  | > 100 µM | > 100 µM | > 100 µM | > 100 µM | > 100 µM | 88.1 µM | 42.9 µM | 80.7 µM |  |  |  |  |  |  |  |  |  | 
6 | O=C1C2ON3c4ccccc4C(=O)C3(c3ccccc3)C2C(=O)N1c1ccccc1 (stereo not given) | > 100 µM | > 100 µM | > 100 µM | > 100 µM | > 100 µM | > 100 µM | > 100 µM | > 100 µM | > 100 µM |  |  |  |  |  |  |  |  |  |  | 
7 | Cc1c(C2Cc3ccccc3N2)c2ccccc2n1C (stereo not given) | > 100 µM |  | > 100 µM | > 100 µM | > 100 µM | > 100 µM | > 100 µM | > 100 µM | > 100 µM | > 100 µM |  |  |  |  |  |  |  |  |  | 
8 | CCOC(=O)c1csc(NC(=O)COc2cccc(/C=C3\CSc4ccccc4C3=O)c2)n1 | 3.41 µM |  | > 100 µM | 2.44 µM | 2.7 µM | 8.99 µM | 2.18 µM | 3.9 µM | 0.286 µM | 0.332 µM | 1.52 µM | > 100 µM | 0.908 µM | 0.992 µM | 2.64 µM | 0.608 µM | 1.33 µM | 0.145 µM | 0.158 µM | 
9 | COc1ccc(CNc2cnc3cc(N)cc(N)c3n2)cc1 |  | 54.3 µM | 43.2 µM | 55.9 µM | 50.4 µM | 32.2 µM | > 100 µM | > 100 µM | 33.7 µM | > 100 µM |  | 15.9 µM | 21.9 µM | 23.5 µM | 17.2 µM | 42 µM | 35.9 µM | 16.3 µM | 24.5 µM | 24.1 µM
10 | CCc1nc2cc(/C=C/C(=O)NO)ccc2c(=O)n1CCc1ccc(F)cc1 | 4.59 µM | 6.28 µM | > 100 µM | 3.61 µM |  | 3.27 µM | 9.06 µM | 4.44 µM | 3.11 µM |  | 1.71 µM | 1.79 µM | 1.87 µM |  | 1.5 µM | 1.49 µM | 1.5 µM | 1.41 µM |  | 2.45 µM
11 | C=C1C(=O)OC2CC3(C)CCCC(C)C3=CC12 (stereo not given) | 30.3 µM | 10.3 µM | 9.04 µM | 26.3 µM | 6.13 µM | 10.4 µM | 14.2 µM |  | 12.5 µM |  |  |  |  |  |  |  |  |  |  | 
12 | NNC(=S)Nc1cccc(Cl)c1 |  |  | > 100 µM | > 100 µM | > 100 µM | > 100 µM | > 100 µM | > 100 µM | > 100 µM | 92.3 µM |  |  |  |  |  |  |  |  |  | 
13 | CC(C)CCC(=O)[C@@H](C)[C@H]1[C@@H](OC2OCC(O)C(O)C2NS(C)(=O)=O)C[C@H]2[C@@H]3CC=C4C[C@@H](O)CC[C@]4(C)[C@H]3CC[C@]12C (stereo not given in full) |  | 10.6 µM | 2.57 µM | 0.595 µM | 6.02 µM | 11.6 µM | 12.5 µM | 6.34 µM | 2.12 µM | 10.3 µM |  | 0.827 µM | 0.141 µM | 1.54 µM | 2.15 µM | 3.02 µM | 1.26 µM | 0.782 µM | 2.72 µM | 3.02 µM
14 | COc1ccc2c(c1)C(=O)c1c-2n(CCCN)c(=O)c2cc(OC)c(OC)cc12 |  | 2.34 µM |  | 1.04 µM | 1.98 µM | 1.14 µM | 0.214 µM | 0.133 µM | 2.72 µM | 1.38 µM |  | < 0.01 µM | < 0.01 µM | 0.0554 µM | 0.0397 µM | 0.0684 µM | < 0.01 µM | 1.19 µM | 0.203 µM | 0.424 µM
15 | NC(=Nc1nc(-c2ccccn2)cc2ccccc12)c1ccccn1 | 23 µM | 5.92 µM | 0.0283 µM |  | > 100 µM |  | > 100 µM | 38.1 µM | 0.921 µM and 1.96 µM | > 100 µM | 0.237 µM | 0.00109 µM |  | 0.0505 µM | 0.0115 µM | 0.0708 µM | 0.319 µM | 0.239 µM | 0.00188 µM | 0.0765 µM
16 | CC(=N)N(C)O | > 100 µM | > 100 µM | > 100 µM | > 100 µM |  | > 100 µM | > 100 µM | > 100 µM | > 100 µM | > 100 µM |  |  |  |  |  |  |  |  |  | 
17 | COC(=O)C(C(=O)C(=O)Nc1ccc(OC)cc1[N+](=O)[O-])c1nc2cc(C)c(C)cc2[nH]c1=O (stereo not given) | > 100 µM | > 100 µM |  | > 100 µM | > 100 µM | > 100 µM | > 100 µM | > 100 µM | > 100 µM | > 100 µM |  |  |  |  |  |  |  |  |  | 
